Data from PMC12668304, “A Triple Threat Against Ovarian Cancer: Os(II)‐Pt(IV)‐Ceritinib Conjugates for Photodynamic Therapy, Chemotherapy, and Immunogenic Cell Death Induction” (Angewandte Chemie (International Ed. in English), 2025).
Like-named read-outs stand apart in the source and are kept apart here.

Test system: A2780 cells
Assay: (Photo-)cytotoxicity on 2D cell monolayers, resazurin assay
Format: cell-based, human
Settings: A2780, normoxic, dark, 4 h exposure, total 48 h incubation, read-out: IC50 Dark
Method: The 2D cytotoxicity and phototoxicity profiles of Os‐Pt‐Cer and controls, were evaluated in a panel of cancerous cell lines, including A2780 (ovarian carcinoma), A549 (non‐small cell lung carcinoma), and MCA205 (murine fibrosarcoma), as well as a non‐cancerous retinal pigment epithelial cell line (RPE‐1). Cells were treated with the compounds (0.003–100 µM) for 4 h, either kept in the dark or irradiated at 670 nm (13.5 J cm^− ^2) (Table S4 and Figure S22) or 740 nm (12.6 J cm^− ^2) and viability was assessed 44 h post‐treatment. To verify robustness, the incubation was extended to 72 h. […]
Human ovarian cancer (A2780) cells and mouse fibrosarcoma cells (MCA205) were cultured in RPMI media. Retinal pigment epithelium (RPE -1) cells were cultured in DMEM/F -12 medium. Lung cancer cells (A549) were cultured in F -12K medium. These cell lines were complemented with 10% of fetal bovine serum, 100 U/mL penicillin -streptomycin mixture, and maintained in a humidified atmosphere […]
(Photo-)cytotoxicity on 2D cell monolayers
The cytotoxicity of the compounds was assessed by measuring cell viability using a resazurin assay.
The cells were seeded in triplicates in 96 well plates with a density of 10 4 cells per well in 100 μL of media. After 24 h, the medium was removed, and the cells were treated with increasing concentrations (0.003 → 100 µM) of the compounds diluted in cell media , achieving a total volume of 100 μL/well.
The cells were incubated with the compound for 4 h (final incubation time 48 h) or 24 h (final incubation time 72 h). After this time, the media was removed and replaced with 100 μL of fresh medium. For the phototoxicity studies, the cells were exposed to light with an Atlas Photonics LUMOS BIO irradiation system. Each well was constantly irradiated at 670 nm (60 min, 13.50 J·cm-2) or 740 nm (60 min, 12.60 J·cm-2). During the irradiation, the temperature of the plate was maintained at 37 °C. The cells were grown in the incubator for an additional 44 or 48 h, respectively. For the determination of the dark cytotoxicity, the cells were not irradiated and after the medium exchange directly incubated for 44 h.
After this time, the medium was replaced with fresh medium containing resazurin (0.2 mg/mL). After […]
4 h of incubation, the conversion of resazurin into resorufin was determined upon excitation at 540 nm and measurement of its emission at 590 nm using a Cytation 5 Imaging Reader from BioTek. The obtained data was analysed with the GraphPad Prism software […]
After 24 h of incubation at 37 °C, 5% CO 2, plates were read using a SpectraMaxM2 Microplate Reader ( λexc = 540 nm; λread = 590 nm). Fluorescence data were normalised, and data were fitted using GraphPad Prism Software, and IC 50 was calculated by non - linear regression. Changes in the size and shape of MCTS were monitored every 24 h using Cytation 5 Imaging Reader from BioTek, objective x4.
Intracellular distribution by confocal fluorescence microscopy
10^4 cells/well (A2780 cells) were seeded in complete medium (RPMI) in µ -slide 8 well (Ibidi) (100 µl/well) and left for 24 h to attach to the bottom. Then, the culture medium was removed , and 100 µl of solution of the corresponding complexes (5 µM) was added. The complexes were incubated with the cells for 4 hours. Thereafter, the medium was removed and replaced by RPMI without phenol red , and Hoechst and MitoTracker Green were added at a final concentration of 1 µg/mL. They were incubated with the cells for 30 min in the dark at 37 °C. Images were collected in a sequential mode in a Leica TCS SP8 confocal microscope with a 60x oil immers ion objective, a line average of 4, and a format of […]
(MTG)→ 500 -550nm, and 488 nm (complexes)→ 680 -730 nm. The confocal pinhole was 1 Airy unit.
Images were analysed with LAS X Flim FCS software.
Intracellular distribution by ICP -MS

## O=C1[O][Pt]2([NH][C@@H]3CCCC[C@H]3[NH]2)[O]C1=O [Oxaliplatin]
  IC50: 46.15 ± 0.2 µM

## Cc1cc(Nc2ncc(Cl)c(Nc3ccccc3S(=O)(=O)C(C)C)n2)c(OC(C)C)cc1C1CCNCC1 [Ceritinib]
Homo sapiens
  IC50: 2.61 ± 0.5 µM
